Measurements from patent publication US6346535B1, “Fungicidal mixtures” (American Cyanamid Company, priority 1999, dated 2002).
Where two headings read alike, the source gives them in different places.

Columns and labels:
Format in all cases: in vivo
[1] = system: Erysiphe cichoracearum on cucumbers; assay: Greenhouse trial, 4 day residual, Erysiphe cichoracearum on cucumbers; conditions: compound alone
Text: (§1) The fungicides are applied in single treatments, or in a combination comprising a benzophenone of formula I and a compound selected from (A) through (E) as defined above. The compounds are applied in form of an aqueous spray mix obtained from a concentrated formulation or the technical material.
(§2) 1. Seed is planted in 6 cm diameter plastic pots and maintained in the greenhouse.
(§3) 2. When the primary leaf is fully expanded (in the case of cereals) or several leaves are present (in the case of dicots), formulated test compounds are sprayed with a three nozzle overhead fungicide sprayer to near run-off. Alternatively, a single nozzle overhead track sprayer is used for application of the compounds to cereals at a rate of 200 liters/ha (l/ha). Plants are then allowed to air-dry.
(§4) 3. Inoculation precedes treatment in the case of curative evaluations and follows treatment in case of residual evaluations. For inoculation of powdery mildew disease, plants are set up on greenhouse benches with bottom watering mats and inoculated by dusting them with conidia from infected plants. Between inoculation and treatment for curative evaluations and between treatment and inoculation for residual evaluations, plants are maintained in the greenhouse with bottom watering. For inoculation of non-powdery mildew diseases, an aqueous spore suspension of the pathogen is applied to the plant and the plants are kept 1-2 days in a moist infection chamber before being returned to the greenhouse where they are maintained by bottom watering.
(§5) 4. Disease on the foliage as percent leaf area with disease symptoms/signs is evaluated about 7 days after inoculation. In the case of wheat, the tips and bases of the leaves are excluded from the evaluation. [formula]
(§6) 1. Technical compounds are formulated in a solvent/surfactant system consisting of 5% acetone and 0.05% Tween 20 in deionized water. Compounds are dissolved in acetone prior to addition of the water; the Tween 20 can be added through either the acetone or the water. Dilutions are made using the solvent/surfactant system. Formulated compounds are prepared using deionized water.
(§7) Assessments of the diseases took place at the indicated day after the application of the compounds. Per cent infected leaf area infected was evaluated. The efficacy of the compounds/compounds mixtures to control the diseases was calculated by using the formula given above under item 4: […]
(§8) Synergy of a fungicide mixture was determined by comparing the actual (observed) fungicidal activity of the mixture to the expected fungicidal activity of the mixture as calculated using the COLBY formula given hereinabove.

[2] = system: Puccinia recondita on wheat; assay: Greenhouse trial, 4 day residual, Puccinia recondita on wheat; conditions: compound alone; for pest or weed control at 4 ppm / pest or weed control at 16 ppm / pest or weed control at 64 ppm / pest or weed control at 256 ppm: Puccinia recondita, 96 h, read-out: Observed Efficacy
Text: as §1, §2, §3, §4, §5, §6, §7, §8
Fungicidal Efficacy of the Mixture of BP-4+Other Fungicides (4 Day Residual) Against Puccinia recondita on Wheat
Fungicidal Efficacy of the Mixture of BP-4+Myclobutanil (4 Day Residual) Against Puccinia recondita on Wheat

[3] = system: Leptosphaeria nodorum on wheat; assay: Greenhouse trial, 4 day residual, Leptosphaeria nodorum on wheat; conditions: compound alone; for pest or weed control at 4 ppm / pest or weed control at 16 ppm / pest or weed control at 64 ppm / pest or weed control at 256 ppm: Parastagonospora nodorum, 96 h, read-out: Observed Efficacy
Text: as §1, §2, §3, §4, §5, §6, §7, §8
Fungicidal Efficacy of the Mixture of BP-4+Other Fungicides (4 Day Residual) Against Leptosphaeria nodorum on Wheat

[4] = Golovinomyces cichoracearum, 96 h, Table VI, dose rate 4 ppm, read-out: Observed Efficacy
[5] = Golovinomyces cichoracearum, 96 h, Table VI, dose rate 16 ppm, read-out: Observed Efficacy
[6] = Golovinomyces cichoracearum, 96 h, Table VI, dose rate 64 ppm, read-out: Observed Efficacy
[7] = Golovinomyces cichoracearum, 96 h, Table VI, dose rate 256 ppm, read-out: Observed Efficacy

Compound: Fc1ccc([C@]2(Cn3cncn3)O[C@H]2c2ccccc2Cl)cc1 (racemic) [Epoxiconazole]
- pest or weed control at 0.4 ppm ([1]; Golovinomyces cichoracearum, 96 h, Table XI, dose rate 0.4 ppm, read-out: Observed Efficacy): 0%
- pest or weed control at 2 ppm ([1]; Golovinomyces cichoracearum, 96 h, Table XI, dose rate 2 ppm, read-out: Observed Efficacy): 46%
- pest or weed control at 10 ppm ([1]; Golovinomyces cichoracearum, 96 h, Table XI, dose rate 10 ppm, read-out: Observed Efficacy): 68%
- pest or weed control at 50 ppm ([1]; Golovinomyces cichoracearum, 96 h, Table XI, dose rate 50 ppm, read-out: Observed Efficacy): 77%

Compound: C[C@@]1(c2ccc(Oc3ccccc3)cc2)OC(=O)N(Nc2ccccc2)C1=O (racemic) [Famoxadone]
- pest or weed control at 4 ppm ([2]; Table IX, dose rate 4 ppm): 45%
- pest or weed control at 16 ppm ([2]; Table IX, dose rate 16 ppm): 80%
- pest or weed control at 64 ppm ([2]; Table IX, dose rate 64 ppm): 92%
- pest or weed control at 4 ppm ([3]; Table X, dose rate 4 ppm): 66%
- pest or weed control at 16 ppm ([3]; Table X, dose rate 16 ppm): 69%
- pest or weed control at 64 ppm ([3]; Table X, dose rate 64 ppm): 80%
- pest or weed control at 256 ppm ([3]; Table X, dose rate 256 ppm): 97%

Compound: CC(Oc1ccc(Cl)cc1Cl)C(=O)NC(C)(C#N)C(C)C (centres unmarked) [AC 382042]
- Observed Efficacy ([1]; Table XI, dose rate 0.4 ppm): 7%
- Observed Efficacy ([1]; Table XI, dose rate 2 ppm): 3%
- Observed Efficacy ([1]; Table XI, dose rate 10 ppm): 14%
- Observed Efficacy ([1]; Table XI, dose rate 50 ppm): 25%

Compound: CO/C=C(/C(=O)OC)c1ccccc1Oc1cc(Oc2ccccc2C#N)ncn1 [Azoxystrobin]
- Observed Efficacy ([1]; Table VI, dose rate 4 ppm): 78%
- Observed Efficacy ([1]; Table VI, dose rate 16 ppm): 96%
- Observed Efficacy ([1]; Table VI, dose rate 64 ppm): 100%
- Observed Efficacy ([1]; Table VI, dose rate 256 ppm): 100%
- Observed Efficacy ([3]; Table VIII, dose rate 4 ppm): 84%
- Observed Efficacy ([3]; Table VIII, dose rate 16 ppm): 97%
- Observed Efficacy ([3]; Table VIII, dose rate 64 ppm): 100%
- Observed Efficacy ([3]; Table VIII, dose rate 256 ppm): 100%

Compound: CSC(=O)c1cccc2nnsc12 [BION, acibenzolar]
- Observed Efficacy ([1]; Table VI, dose rate 4 ppm): 0%
- Observed Efficacy ([1]; Table VI, dose rate 16 ppm): 0%
- Observed Efficacy ([1]; Table VI, dose rate 64 ppm): 0%
- Observed Efficacy ([1]; Table VI, dose rate 256 ppm): 0%
- Observed Efficacy ([2]; Table VII, dose rate 4 ppm): 0%
- Observed Efficacy ([2]; Table VII, dose rate 16 ppm): 0%
- Observed Efficacy ([2]; Table VII, dose rate 64 ppm): 0%
- Observed Efficacy ([2]; Table VII, dose rate 256 ppm): 0%

Compound: O=C1C2CC=CCC2C(=O)N1SC(Cl)(Cl)Cl (centres unmarked) [Captan]
- pest or weed control at 4 ppm ([2]; Table IX, dose rate 4 ppm): 4%
- pest or weed control at 16 ppm ([2]; Table IX, dose rate 16 ppm): 11%
- pest or weed control at 64 ppm ([2]; Table IX, dose rate 64 ppm): 55%
- pest or weed control at 256 ppm ([2]; Table IX, dose rate 256 ppm): 89%
- pest or weed control at 64 ppm ([3]; Table X, dose rate 64 ppm): 84%
- pest or weed control at 256 ppm ([3]; Table X, dose rate 256 ppm): 90%

Compound: N#Cc1c(Cl)c(Cl)c(Cl)c(C#N)c1Cl [Chlorothalonil]
- pest or weed control at 4 ppm [1, 4]: 0%
- pest or weed control at 16 ppm [1, 5]: 0%
- pest or weed control at 64 ppm [1, 6]: 0%
- pest or weed control at 256 ppm [1, 7]: 1%
- pest or weed control at 4 ppm ([2]; Table VII, dose rate 4 ppm): 0%
- pest or weed control at 16 ppm ([2]; Table VII, dose rate 16 ppm): 0%
- pest or weed control at 64 ppm ([2]; Table VII, dose rate 64 ppm): 0%
- pest or weed control at 256 ppm ([2]; Table VII, dose rate 256 ppm): 31%

Compound: COc1ccc(C(=CC(=O)N2CCOCC2)c2ccc(Cl)cc2)cc1OC [Dimethomorph]
- pest or weed control at 4 ppm [1, 4]: 0%
- pest or weed control at 16 ppm [1, 5]: 0%
- pest or weed control at 64 ppm [1, 6]: 0%
- pest or weed control at 256 ppm [1, 7]: 18%
- pest or weed control at 16 ppm ([2]; Table VII, dose rate 16 ppm): 0%
- pest or weed control at 64 ppm ([2]; Table VII, dose rate 64 ppm): 0%
- pest or weed control at 256 ppm ([2]; Table VII, dose rate 256 ppm): 0%
- pest or weed control at 4 ppm ([3]; Table VIII, dose rate 4 ppm): 1%
- pest or weed control at 16 ppm ([3]; Table VIII, dose rate 16 ppm): 6%
- pest or weed control at 64 ppm ([3]; Table VIII, dose rate 64 ppm): 11%
- pest or weed control at 256 ppm ([3]; Table VIII, dose rate 256 ppm): 14%

Compound: N#Cc1sc2c(=O)c3ccccc3c(=O)c=2sc1C#N [Dithianon]
- pest or weed control at 4 ppm [1, 4]: 0%
- pest or weed control at 16 ppm [1, 5]: 0%
- pest or weed control at 64 ppm [1, 6]: 0%
- pest or weed control at 256 ppm [1, 7]: 0%
- pest or weed control at 4 ppm ([2]; Table VII, dose rate 4 ppm): 4%
- pest or weed control at 16 ppm ([2]; Table VII, dose rate 16 ppm): 16%
- pest or weed control at 64 ppm ([2]; Table VII, dose rate 64 ppm): 84%
- pest or weed control at 256 ppm ([2]; Table VII, dose rate 256 ppm): 95%
- pest or weed control at 4 ppm ([3]; Table VIII, dose rate 4 ppm): 0%
- pest or weed control at 16 ppm ([3]; Table VIII, dose rate 16 ppm): 1%
- pest or weed control at 64 ppm ([3]; Table VIII, dose rate 64 ppm): 37%
- pest or weed control at 256 ppm ([3]; Table VIII, dose rate 256 ppm): 74%
